Results on nine compounds are retold here after PubChem BioAssay (NCI).

Each structure is given as a SMILES string.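 Cultured in 96-well plates, cells were exposed to test compound for 48 hours across five concentrations. Definition used: TGI = concentration required for complete inhibition of growth.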

Some test systems named below: A498 renal; ACHN renal; CAKI-1 renal; HS 578T breast; HT29 colon; NCI-H226 lung; OVCAR-5 ovarian; SF-295 CNS; SK-MEL-5 melanoma; UACC-257 melanoma.
Common to all, as to test: NCI anticancer screen, dose series, 48 h

For `CSc1nc2c(c(N(C)C)n1)C=Nn1c(nc3ccccc31)S2`, the TGI in the experiment on A498 renal, in the experiment with ACHN renal, in the experiment with CAKI-1 renal, in the experiment on HS 578T breast, in the experiment on HT29 colon and in the experiment with NCI-H226 lung was above 100 µM each time. Besides, the TGI in the experiment with OVCAR-5 ovarian, in the experiment on SF-295 CNS, in the experiment on SK-MEL-5 melanoma and in the experiment with UACC-257 melanoma was above 100 µM throughout.

For the compound `COc1c2nc(CCl)n(C)c(=O)c2c(OC)c2c(=O)n(C)c(CCl)nc12`, the TGI in the experiment on A498 renal turned out to be 5.94 µM; in the experiment on ACHN renal it was 2.43 µM; in the experiment on CAKI-1 renal, 2.94 µM; in the experiment on HS 578T breast, 95 µM; in the experiment with HT29 colon it was 2.87 µM; in the experiment with NCI-H226 lung, 13.7 µM. Also, the TGI in the experiment with OVCAR-5 ovarian was determined as 7.75 µM; with SF-295 CNS, 5.16 µM; with SK-MEL-5 melanoma, 4.96 µM; with UACC-257 melanoma, 5.24 µM.

Consider `Cc1ccc(N=Nc2c(O)c3ccccc3[nH]c2=O)c(S(=O)(=O)N(C)C)c1`, for which the TGI in the experiment with A498 renal, with ACHN renal, in the experiment on CAKI-1 renal, in the experiment with HS 578T breast, in the experiment on HT29 colon and in the experiment on NCI-H226 lung was above 100 µM throughout. The TGI in the experiment on OVCAR-5 ovarian, in the experiment on SF-295 CNS, with SK-MEL-5 melanoma and in the experiment with UACC-257 melanoma was above 100 µM each time.

As for `COc1ccc2c(c1O)-c1c(OC)c(OC)cc3c1[C@H](C2)[N+](C)(C)CC3`, the TGI in the experiment with A498 renal, in the experiment on ACHN renal, with CAKI-1 renal, in the experiment with HS 578T breast, with HT29 colon and in the experiment with NCI-H226 lung was above 100 µM each time. Also, the TGI in the experiment with OVCAR-5 ovarian, in the experiment with SF-295 CNS, with SK-MEL-5 melanoma and in the experiment with UACC-257 melanoma was above 100 µM throughout.

As for `CC(=O)N[C@@H](Cc1ccc(O)cn1)C(=O)NCc1cccc(F)c1`, the TGI in the experiment on A498 renal, in the experiment with ACHN renal, with CAKI-1 renal, in the experiment on HS 578T breast, with HT29 colon and with NCI-H226 lung was above 100 µM throughout. Also, the TGI with OVCAR-5 ovarian, with SF-295 CNS, in the experiment with SK-MEL-5 melanoma and with UACC-257 melanoma was above 100 µM throughout.

For the compound `COC(=O)Cc1c([C@@H]2Nc3ccccc3[C@H]2CC(=O)OC)[nH]c2ccccc12`, the TGI with A498 renal, in the experiment with ACHN renal, in the experiment on CAKI-1 renal, in the experiment with HS 578T breast, in the experiment with HT29 colon and with NCI-H226 lung was above 100 µM each time. In addition, the TGI with OVCAR-5 ovarian is above 100 µM; with SF-295 CNS, above 100 µM; in the experiment on SK-MEL-5 melanoma, 21 µM; with UACC-257 melanoma it was 81.6 µM.

On to `O=C1CC(NC(=O)C(F)(F)F)c2c(Br)sc(N3CCC(c4ccccc4)CC3)c21` (stereo not given), for which the TGI in the experiment on A498 renal was above 100 µM; with ACHN renal, above 100 µM; in the experiment on CAKI-1 renal, 43.8 µM; in the experiment with HS 578T breast, 79.6 µM; in the experiment on HT29 colon it was above 100 µM; in the experiment on NCI-H226 lung, 91.5 µM. Besides, the TGI is above 100 µM in the experiment on OVCAR-5 ovarian, 28.7 µM in the experiment on SF-295 CNS, 68.4 µM in the experiment on SK-MEL-5 melanoma and 82.4 µM in the experiment on UACC-257 melanoma.

Regarding `COc1cc2c(cc1OC)C(=O)N(c1ccc(O)cc1)C2`, the TGI with A498 renal, with ACHN renal, in the experiment with CAKI-1 renal, in the experiment with HS 578T breast, in the experiment with HT29 colon and in the experiment with NCI-H226 lung was above 100 µM each time. Also, the TGI with OVCAR-5 ovarian, with SF-295 CNS, in the experiment on SK-MEL-5 melanoma and in the experiment on UACC-257 melanoma was above 100 µM in each case.

Consider `CCOC(=O)C1(Cc2ccc(C)cc2)Cc2ccc(C)cc2C1=O` (stereo not given), for which the TGI in the experiment with A498 renal was above 79.1 µM; in the experiment with ACHN renal, above 100 µM; with CAKI-1 renal, above 100 µM; with HS 578T breast, above 100 µM; in the experiment with HT29 colon it was 49.1 µM; with NCI-H226 lung, above 92.4 µM. For the same compound, the TGI in the experiment on OVCAR-5 ovarian was above 100 µM; in the experiment on SF-295 CNS, above 86.5 µM; in the experiment with SK-MEL-5 melanoma, 20.8 µM; in the experiment with UACC-257 melanoma, 98.2 µM.
